# Reference: PubChem BioAssay AID463180 (University of Pittsburgh Molecular Library Screening Center, 2010)
# The source made the active and inactive calls. The rule behind the calls is not given here.
# Target: Furin (Homo sapiens) (UniProt P09958)
# Test: furin substrate cleavage inhibition retest – biochemical, fluorescence intensity, confirmation (AID 463180)
# Conditions: Recombinant furin, fluorogenic substrate cleavage, at 50 µM, active compounds read high
# Chain of Furin (Homo sapiens) (P09958 108-714 limits assumed): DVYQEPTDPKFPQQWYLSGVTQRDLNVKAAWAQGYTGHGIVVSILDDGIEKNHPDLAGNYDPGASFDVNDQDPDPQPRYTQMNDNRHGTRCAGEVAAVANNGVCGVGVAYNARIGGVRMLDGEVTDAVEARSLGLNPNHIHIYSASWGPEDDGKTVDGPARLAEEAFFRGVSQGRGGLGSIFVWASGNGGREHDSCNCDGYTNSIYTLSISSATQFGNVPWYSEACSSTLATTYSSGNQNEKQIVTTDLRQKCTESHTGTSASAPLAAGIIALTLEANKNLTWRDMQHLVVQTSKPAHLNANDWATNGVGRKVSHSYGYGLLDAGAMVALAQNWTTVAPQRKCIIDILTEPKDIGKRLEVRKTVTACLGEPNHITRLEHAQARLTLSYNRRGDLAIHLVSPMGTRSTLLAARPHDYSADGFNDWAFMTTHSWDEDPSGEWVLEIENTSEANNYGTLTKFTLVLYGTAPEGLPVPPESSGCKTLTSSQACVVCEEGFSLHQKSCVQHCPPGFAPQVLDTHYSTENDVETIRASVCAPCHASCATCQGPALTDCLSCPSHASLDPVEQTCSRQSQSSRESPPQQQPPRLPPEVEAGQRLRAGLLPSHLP
row,Compound,inhibition
1,Cc1ccc(SCCCCN2C(=O)NC(C)(C)C2=O)cc1,-8.35% (inactive)
2,C=CCn1c(O)c(/C=N/NC(=O)c2ccncc2)c(=O)[nH]c1=O,5.98% (inactive)
3,CSc1nc(N)c(N=Nc2ccc([As](=O)(O)O)cc2)c(=O)[nH]1,15.9%
4,CC(=O)Nc1cc(-c2ccc(Cl)cc2)nn1-c1ccccc1,-20% (inactive)
5,COc1ccc(C(=O)NCCN2CCOCC2)cc1OC,-19.6% (inactive)
6,COc1cc(S(=O)(=O)Nc2ncccc2C)c(OC)cc1Cl,-4.1% (inactive)
7,OC(CNCC1CCCO1)Cn1c2ccc(Br)cc2c2cc(Br)ccc21 (stereo not given),-2.62% (inactive)
8,CNC(=O)C1CC(=O)N(CCc2ccc(OC)cc2)C(=Nc2ccc(OC)cc2)S1 (stereo not given),-13.8% (inactive)
9,OC1C2CN3CCN(C2)CC1(Cc1ccccc1)C3 (stereo not given),-20.6% (inactive)
10,COc1ccc(N=CC2=C(O)CC(C)(C)CC2=O)cc1,8.92% (inactive)
11,Cc1nc(SCc2ccc(O)c([N+](=O)[O-])c2)n[nH]1,0.762% (inactive)
12,O=C(COc1ccc(Cl)cc1Cl)NC(=O)N1CCOCC1,-20.4% (inactive)
13,CCOC(=O)c1c(/N=C/C2=C(O)CCCC2=O)sc(C)c1C,-13.1% (inactive)
14,O=C(Nc1ccccc1)N(CCN1CCOCC1)Cc1ccccc1F,-13% (inactive)
15,CCSc1ccccc1C(=O)Nc1nncs1,-22.6% (inactive)
16,COc1cc(NC(=O)c2ccccc2)c(OC)cc1Cl,-9.8% (inactive)
17,CCC(C)C(NC(=O)C1CCC(C)CC1)C(=O)NCc1cccnc1 (stereo not given),-18.4% (inactive)
18,Cc1cccc(-n2c(O)c(/C=C/C=Nc3ccccc3)c(=O)[nH]c2=O)c1,14.2%
19,O=C1CC(N2CCC(c3nc4ccccc4o3)CC2)C(=O)N1Cc1cccs1 (stereo not given),-13.2% (inactive)
20,N#CC1=C(N)NC(SCc2ccc(Br)cc2)=C(C#N)C12CCCCC2,-6.5% (inactive)
21,NC(=O)c1ccccc1N/C=C/C(=O)c1ccc(F)cc1,-9.67% (inactive)
22,CCN1CCS/C1=C\C=C\C1=[N+](CC)CCS1,63.4%
23,COc1ccccc1C(=O)NC(C)C(c1cccs1)N1CCOCC1 (stereo not given),-25.9% (inactive)

row,Compound,inhibition
1,Cn1ncc(Cl)c1C(=O)Nc1cccc(Cl)c1,-11% (inactive)
2,COC(=O)c1ccc(NC2(C#N)C(=O)Nc3ccccc32)cc1 (stereo not given),-18.6% (inactive)
3,O=C1CC(=C2c3ccccc3-c3ccccc32)C(=O)N1CCCCN1CCN(c2ccccc2)CC1,9.51% (inactive)
4,Cc1cc(N=CC2=C(O)CC(C)(C)CC2=O)no1,-1.24% (inactive)
5,CCCCN1CCC(O)(c2ccccc2)C(C(=O)c2ccccc2)C1 (stereo not given),-20.5% (inactive)
6,COc1cc(/C=C/C(=O)OCC(=O)NC(=O)NC(C)C)ccc1O,3.94% (inactive)
7,O=C(NCc1ccccc1)C1COc2ccccc2O1 (stereo not given),-16.5% (inactive)
8,Cc1cccc(/C=C2/S/C(=N/N=C3\CC4CCC3(C)C4(C)C)NC2=O)c1 (stereo not given),12.3%
9,CCOC(=O)c1cc(CC)sc1/N=C/C1=C(O)CCCC1=O,-4.4% (inactive)
10,CCC(Sc1ncccc1C(=O)O)C(=O)N1CCCC1 (stereo not given),-20.2% (inactive)
11,COC(=O)COc1ccc(S(=O)(=O)NCC2CCCO2)cc1Cl (stereo not given),-21.4% (inactive)
12,COC(=O)c1ccc(Cn2nc(C)c(Cl)c2C)o1,-14.9% (inactive)
13,CCn1c(SCC(=O)Nc2cc(F)ccc2C)nnc1-c1ccccc1O,-18.5% (inactive)
14,COC(=O)c1[nH]c2cc(OC)ccc2c1NC(=O)CCN1CCCCC1,-14.9% (inactive)
15,CCCC(=O)Nc1cccc(Oc2nc(C)cc(C)c2C#N)c1,-3.32% (inactive)
16,O=C(C1Cc2ccccc2CN1S(=O)(=O)c1cccs1)N1CCCCC1 (stereo not given),-7.18% (inactive)
17,COc1ccc(S(=O)(=O)Nc2cc(C(C)C)c(O)cc2C)cc1,-20.4% (inactive)
18,Cc1ccc(-n2nc3cc(C)c(NC(=O)c4cccnc4)cc3n2)cc1,-15.7% (inactive)
19,CC1(C)CC(=O)C(/C=N/n2cnc3ccccc3c2=O)=C(O)C1,7.64% (inactive)
20,O=C(COC(=O)c1ccc[nH]c1=O)NCC1CCCO1 (stereo not given),-31.2% (inactive)
21,CNc1nc(NCCOC23CC4CC(CC(C4)C2)C3)nc(OCC(F)(F)F)n1,-19.7% (inactive)
22,CN1CCN(c2ccccc2NC(=O)c2cccc(OCc3ccccc3)c2)CC1,-16% (inactive)
23,COC(=O)c1[nH]c2ccccc2c1NC(=O)CN1CCC(C(N)=O)(N2CCCCC2)CC1,-12.8% (inactive)

row,Compound,inhibition
1,COc1cc(C(=O)Nc2ccc(-c3nnc(-c4ccco4)o3)cc2)cc(OC)c1OC,-21% (inactive)
2,CCOC(=O)C(C(=O)NCC1CCCO1)C1CCCCC1 (stereo not given),-17.6% (inactive)
3,CCN1CCS/C1=C/C=C/C1=[N+](CC)CCS1,61.3%
4,CCOC(=O)c1cc(C)sc1/N=C/C1=C(O)CCCC1=O,-5.31% (inactive)
5,CCCCCc1nnc(NC(=O)C2CCCO2)s1 (stereo not given),-22.1% (inactive)
6,CC(=O)NC(C)c1nc2ccccc2n1Cc1ccccc1F (stereo not given),-16.7% (inactive)
7,O=C(CCN1C(=O)c2ccccc2C1=O)N(CCO)Cc1ccccc1,-16.7% (inactive)
8,CC1(C)CC(=O)C(C=Nc2cccnc2/N=C/C2=C(O)CC(C)(C)CC2=O)=C(O)C1,0.675% (inactive)
9,O=C1C=C(c2ccc(Cl)cc2)OC2(CCCC2)O1,-10.7% (inactive)
10,Cc1cc(Cl)ccc1OCCCC(=O)N1CCOCC1,-18.9% (inactive)
11,Cc1c(NC(=O)c2ccc(Cl)c(S(=O)(=O)N3CCOCC3)c2)c(=O)n(-c2ccccc2)n1C,-23.3% (inactive)
12,CCCCCC(=O)N(CN1C(=O)CCC1=O)c1ccccc1,-20.9% (inactive)
13,COc1nc(C)ccc1-c1noc(-c2ccccn2)n1,-16.6% (inactive)
14,Cc1cccc(/N=C/C2=C(O)CC(C)(C)CC2=O)n1,13.1%
15,CCCOc1ccc(C2NC(=O)NC2=O)cc1 (stereo not given),-10.8% (inactive)
16,CCn1c(C)c(CCC(=O)O)c(=O)n2nc(-c3ccccc3OC)cc12,-22.2% (inactive)
17,COc1ccc(NC(=O)Nc2ncn(Cc3cccc(C(F)(F)F)c3)n2)cc1OC,-15.8% (inactive)
18,O=C1CC(c2ccccc2)CC(=O)C1=CN1CCCC1 (stereo not given),1.13% (inactive)
19,O=C(Cc1c[nH]c2ccccc12)N1CCc2ccccc21,-24.6% (inactive)
20,COC(=O)C1C(=O)/C(=C/N(C)C)C(=O)CC1(C)C (stereo not given),4.91% (inactive)
21,Cc1ccc2nc(/C(C#N)=C/c3cn[nH]c3-c3ccc(F)cc3)[nH]c2c1,8.39% (inactive)
22,CN1/C(=C\C=C2C(=O)NC(=O)NC2=O)C(C)(C)c2ccccc21,1.52% (inactive)
23,CSc1n[nH]c(NCc2ccc(C)cc2)n1,-16.7% (inactive)

row,Compound,inhibition
1,CCCOP(=O)(c1ccc(N(C)C)cc1)C(Nc1ccccc1)c1ccc(N(C)C)cc1 (stereo not given),31.5%
2,Cc1cc(N=CC2=C(O)CCCC2=O)no1,-4.93% (inactive)
3,O=C(c1ccco1)N1CCN(C2CC(=O)N(c3ccc4c(c3)OCO4)C2=O)CC1 (stereo not given),-17% (inactive)
4,CCOC(=O)C(CC)Sc1nnc(COc2ccc(C)cc2)n1-c1ccccc1 (stereo not given),-0.94% (inactive)
5,CC1(C)CC(=O)C(C=Nc2cccnc2)=C(O)C1,21.6%
6,O=C(CN1C(=O)c2ccccc2C1=O)Nc1sc2c(c1C(=O)NCc1ccco1)CCCC2,-11.4% (inactive)
7,CC1(C)CC(=O)C(C=Nc2ccc(Cl)cn2)=C(O)C1,-4.84% (inactive)
8,CCOC(=O)C(CC)Sc1nc2c(c(=O)[nH]c(=O)n2C)n1C/C=C(/C)Cl (stereo not given),-19.2% (inactive)
9,COc1cccc(-n2nnc3c(=O)n(Cc4ccccc4Cl)cnc32)c1,-14.9% (inactive)
10,CCCCCCN1C=CC=C/C1=C/C=C(C#N)C#N,6.58% (inactive)
11,Cc1ccccc1-n1c(O)c(C=Nc2ccc(N(C)C)cc2)c(=O)[nH]c1=O,20.3%
12,CCNC(=O)C1CC(=O)N(Cc2ccc3c(c2)OCO3)C(=Nc2ccc(F)cc2)S1 (stereo not given),-9.04% (inactive)
13,CC1(C)CC(=O)C(/C=N/c2ccccn2)=C(O)C1,2.22% (inactive)
14,CCCCOc1ccc(-c2ncc(Cl)cn2)cc1,-14.4% (inactive)
15,CCOC(=O)c1cc(C)sc1/N=C/C1C(=O)CCCC1=O,-15.3% (inactive)
16,CCOC(=O)NC(=O)CSc1nnnn1-c1ccccc1,-19.1% (inactive)
17,COc1ccc(NC(=O)CSc2nncn2C)cc1OC,-12.4% (inactive)
18,COc1ccccc1NC(=O)c1cc(S(=O)(=O)N2CCOCC2)ccc1Cl,-16.1% (inactive)
19,COc1ccc(S(=O)(=O)NCCC(=O)NCc2ccc(F)cc2)cc1,-20.3% (inactive)
20,O=C(CN1C(=O)C2C3C=CC(C3)C2C1=O)NCc1ccc2c(c1)OCO2 (stereo not given),-17.4% (inactive)
21,COc1ccc(/C=N/n2c(=O)[nH]c3c([nH]c4ccc(C)cc43)c2=O)cc1CN1CCOCC1,-14% (inactive)
